Data taken from the supplement of paper PMC12463676, “Small-molecule dissolution of stress granules by redox modulation benefits ALS models” (Nature Chemical Biology, 2025).

Experiments:
potassium arsenate = compound: O=[As]([O-])(O)O.[K+] [potassium arsenate]; experiment: thermal stability z-score vs DMSO; higher = more thermally stabilized by treatment; settings: HeLa; arsenate concentration 1 mM
Method: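 Cellular thermal proteome profiling in HeLa cells treated with 1 mM arsenate for 1 h (DMSO pretreatment), heated to ten temperatures (37-66.3 °C). Soluble protein was quantified by TMT mass spectrometry relative to DMSO controls; the thermal stability score was transformed to a z-score; mean of n = 3 experiments.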

lipoamide = compound: NC(=O)CCCCC1CCSS1 [lipoamide]; experiment: as above; settings: HeLa, lipoamide concentration 100 µM
Method: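 Cellular thermal proteome profiling in HeLa cells. Cells were treated with 100 µM lipoamide for 1 h, with or without 1 mM arsenate for a further 1 h, then heated to ten temperatures (37-66.3 °C), and soluble protein was quantified by TMT mass spectrometry relative to 0.1% DMSO controls. The thermal stability score (sum of log2 fold changes minus the abundance score) was transformed to a z-score; mean of n = 3 experiments.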

[1] = arsenate co-treatment: 1 mM arsenate 1 h
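Note: each temperature applied for 3 min, abundance score taken as mean log2 fold change at the two lowest temperatures, z-score obtained by mean subtraction and division by SD.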

Sequence of UniProt O00635 (O00635 whole entry): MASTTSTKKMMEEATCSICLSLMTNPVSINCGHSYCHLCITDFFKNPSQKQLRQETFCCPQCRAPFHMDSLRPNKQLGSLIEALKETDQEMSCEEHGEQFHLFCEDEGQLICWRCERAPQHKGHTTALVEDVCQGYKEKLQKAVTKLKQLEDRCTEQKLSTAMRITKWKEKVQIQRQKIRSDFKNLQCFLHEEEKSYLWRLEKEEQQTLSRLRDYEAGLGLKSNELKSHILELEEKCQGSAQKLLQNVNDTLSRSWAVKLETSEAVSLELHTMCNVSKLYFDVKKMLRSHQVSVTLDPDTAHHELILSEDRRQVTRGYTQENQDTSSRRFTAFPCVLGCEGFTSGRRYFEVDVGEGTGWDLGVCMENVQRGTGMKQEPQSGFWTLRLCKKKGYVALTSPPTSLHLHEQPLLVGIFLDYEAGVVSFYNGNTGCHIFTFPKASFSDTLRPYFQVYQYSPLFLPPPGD
Sequence of UniProt P12004 (P12004 whole entry): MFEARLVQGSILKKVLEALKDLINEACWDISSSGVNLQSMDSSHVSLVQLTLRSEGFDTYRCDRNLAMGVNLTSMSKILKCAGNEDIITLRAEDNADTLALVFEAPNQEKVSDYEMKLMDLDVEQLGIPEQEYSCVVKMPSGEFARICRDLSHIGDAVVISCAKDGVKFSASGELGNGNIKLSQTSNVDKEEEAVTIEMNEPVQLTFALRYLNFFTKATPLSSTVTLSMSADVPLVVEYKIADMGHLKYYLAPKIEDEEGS
Sequence of UniProt Q8NBF2 (Q8NBF2 whole entry): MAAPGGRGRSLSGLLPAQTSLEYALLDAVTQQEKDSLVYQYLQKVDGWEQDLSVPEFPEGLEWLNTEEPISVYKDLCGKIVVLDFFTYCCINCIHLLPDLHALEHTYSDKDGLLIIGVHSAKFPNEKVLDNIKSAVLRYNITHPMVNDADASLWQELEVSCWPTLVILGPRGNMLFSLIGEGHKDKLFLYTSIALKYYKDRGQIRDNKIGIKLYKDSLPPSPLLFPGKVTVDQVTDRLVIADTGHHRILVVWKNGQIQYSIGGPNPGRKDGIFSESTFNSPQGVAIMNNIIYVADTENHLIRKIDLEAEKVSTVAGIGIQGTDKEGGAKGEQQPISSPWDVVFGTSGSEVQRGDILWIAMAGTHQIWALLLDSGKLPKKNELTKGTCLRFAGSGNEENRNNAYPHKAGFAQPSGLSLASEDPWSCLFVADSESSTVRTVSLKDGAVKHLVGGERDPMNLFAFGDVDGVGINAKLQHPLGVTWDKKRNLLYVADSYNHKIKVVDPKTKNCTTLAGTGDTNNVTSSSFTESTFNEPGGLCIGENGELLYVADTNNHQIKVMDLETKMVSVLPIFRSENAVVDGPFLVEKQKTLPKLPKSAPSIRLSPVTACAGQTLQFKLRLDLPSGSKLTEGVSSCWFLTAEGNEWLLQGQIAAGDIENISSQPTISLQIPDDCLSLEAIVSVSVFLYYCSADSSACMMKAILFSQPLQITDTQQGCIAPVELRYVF
Sequence of UniProt O95067 (O95067 whole entry): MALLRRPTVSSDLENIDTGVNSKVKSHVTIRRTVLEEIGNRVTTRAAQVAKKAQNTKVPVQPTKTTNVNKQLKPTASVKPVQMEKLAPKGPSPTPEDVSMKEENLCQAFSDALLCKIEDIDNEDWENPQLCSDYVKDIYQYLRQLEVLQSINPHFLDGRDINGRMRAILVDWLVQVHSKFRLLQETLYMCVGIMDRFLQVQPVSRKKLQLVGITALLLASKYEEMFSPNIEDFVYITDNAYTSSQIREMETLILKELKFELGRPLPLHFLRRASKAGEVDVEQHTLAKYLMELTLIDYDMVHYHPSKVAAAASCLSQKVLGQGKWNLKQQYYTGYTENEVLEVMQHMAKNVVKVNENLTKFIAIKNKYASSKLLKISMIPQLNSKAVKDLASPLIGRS
Sequence of UniProt Q9UGN5 (Q9UGN5 whole entry): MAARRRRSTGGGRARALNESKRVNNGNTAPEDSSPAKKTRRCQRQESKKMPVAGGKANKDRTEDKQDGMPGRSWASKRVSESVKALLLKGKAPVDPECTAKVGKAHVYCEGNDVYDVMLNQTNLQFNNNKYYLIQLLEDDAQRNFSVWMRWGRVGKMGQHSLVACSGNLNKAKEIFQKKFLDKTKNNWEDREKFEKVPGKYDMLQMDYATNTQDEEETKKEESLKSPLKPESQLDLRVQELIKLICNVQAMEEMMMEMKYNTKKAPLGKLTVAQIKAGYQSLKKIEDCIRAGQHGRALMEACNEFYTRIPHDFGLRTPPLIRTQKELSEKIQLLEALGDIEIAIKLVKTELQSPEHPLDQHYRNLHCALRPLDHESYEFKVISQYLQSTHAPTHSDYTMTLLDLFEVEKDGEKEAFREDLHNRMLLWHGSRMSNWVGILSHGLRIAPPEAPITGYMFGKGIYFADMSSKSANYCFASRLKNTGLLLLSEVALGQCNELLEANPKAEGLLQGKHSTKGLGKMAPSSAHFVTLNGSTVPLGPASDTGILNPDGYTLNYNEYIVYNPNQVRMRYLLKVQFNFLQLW
Sequence of UniProt P51149 (P51149 whole entry): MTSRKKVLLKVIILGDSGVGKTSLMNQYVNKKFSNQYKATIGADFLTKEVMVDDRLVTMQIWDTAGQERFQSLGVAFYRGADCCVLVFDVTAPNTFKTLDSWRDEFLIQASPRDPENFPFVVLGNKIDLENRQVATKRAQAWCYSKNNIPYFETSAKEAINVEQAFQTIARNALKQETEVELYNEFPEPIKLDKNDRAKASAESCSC
Sequence of UniProt Q14185 (Q14185 whole entry): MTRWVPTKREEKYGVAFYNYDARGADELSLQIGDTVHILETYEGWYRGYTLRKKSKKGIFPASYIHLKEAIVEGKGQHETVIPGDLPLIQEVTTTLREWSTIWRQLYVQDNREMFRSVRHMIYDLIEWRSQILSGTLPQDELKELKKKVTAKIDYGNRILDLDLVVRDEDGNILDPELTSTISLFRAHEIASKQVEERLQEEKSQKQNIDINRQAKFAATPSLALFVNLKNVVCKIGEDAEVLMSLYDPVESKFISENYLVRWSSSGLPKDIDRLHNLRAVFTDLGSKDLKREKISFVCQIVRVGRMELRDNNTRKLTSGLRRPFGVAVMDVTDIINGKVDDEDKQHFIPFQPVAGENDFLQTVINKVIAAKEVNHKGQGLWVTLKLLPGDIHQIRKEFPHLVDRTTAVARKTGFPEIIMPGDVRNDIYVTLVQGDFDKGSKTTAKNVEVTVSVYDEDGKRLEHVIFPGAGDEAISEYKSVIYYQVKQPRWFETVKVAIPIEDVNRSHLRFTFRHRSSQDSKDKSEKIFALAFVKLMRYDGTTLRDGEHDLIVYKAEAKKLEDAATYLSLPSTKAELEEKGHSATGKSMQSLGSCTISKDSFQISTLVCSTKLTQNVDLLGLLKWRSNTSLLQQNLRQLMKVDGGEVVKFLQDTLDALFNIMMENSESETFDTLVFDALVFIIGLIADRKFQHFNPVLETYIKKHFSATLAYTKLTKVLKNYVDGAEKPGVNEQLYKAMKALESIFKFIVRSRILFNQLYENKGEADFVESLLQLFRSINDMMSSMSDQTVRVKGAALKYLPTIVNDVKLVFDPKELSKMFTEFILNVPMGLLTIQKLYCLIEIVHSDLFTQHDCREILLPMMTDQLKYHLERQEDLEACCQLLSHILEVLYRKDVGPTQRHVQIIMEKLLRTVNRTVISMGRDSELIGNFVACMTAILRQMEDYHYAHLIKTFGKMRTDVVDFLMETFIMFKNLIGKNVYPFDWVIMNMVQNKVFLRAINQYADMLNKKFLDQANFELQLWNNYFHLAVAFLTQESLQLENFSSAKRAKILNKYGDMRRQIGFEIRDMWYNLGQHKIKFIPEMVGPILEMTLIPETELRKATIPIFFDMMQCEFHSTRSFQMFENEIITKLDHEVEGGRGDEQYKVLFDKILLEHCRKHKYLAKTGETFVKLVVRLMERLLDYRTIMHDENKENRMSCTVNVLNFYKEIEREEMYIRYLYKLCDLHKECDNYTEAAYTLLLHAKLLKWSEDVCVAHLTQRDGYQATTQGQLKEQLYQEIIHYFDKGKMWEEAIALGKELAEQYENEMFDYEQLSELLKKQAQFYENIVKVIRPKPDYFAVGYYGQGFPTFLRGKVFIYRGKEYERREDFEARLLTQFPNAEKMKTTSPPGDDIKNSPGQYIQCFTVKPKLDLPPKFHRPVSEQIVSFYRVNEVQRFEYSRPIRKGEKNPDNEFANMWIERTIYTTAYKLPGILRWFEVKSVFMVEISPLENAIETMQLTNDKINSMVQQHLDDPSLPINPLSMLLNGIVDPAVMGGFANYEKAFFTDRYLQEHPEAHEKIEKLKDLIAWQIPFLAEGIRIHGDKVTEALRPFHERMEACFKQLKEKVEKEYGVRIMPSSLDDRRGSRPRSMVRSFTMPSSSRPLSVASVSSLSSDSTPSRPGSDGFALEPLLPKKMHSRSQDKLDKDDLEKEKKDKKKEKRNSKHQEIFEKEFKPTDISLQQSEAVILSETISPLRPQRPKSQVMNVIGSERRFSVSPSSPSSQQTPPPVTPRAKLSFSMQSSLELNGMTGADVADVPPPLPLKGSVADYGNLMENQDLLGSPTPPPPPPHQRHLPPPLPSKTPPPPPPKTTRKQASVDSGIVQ
Sequence of UniProt Q6YP21 (Q6YP21 whole entry): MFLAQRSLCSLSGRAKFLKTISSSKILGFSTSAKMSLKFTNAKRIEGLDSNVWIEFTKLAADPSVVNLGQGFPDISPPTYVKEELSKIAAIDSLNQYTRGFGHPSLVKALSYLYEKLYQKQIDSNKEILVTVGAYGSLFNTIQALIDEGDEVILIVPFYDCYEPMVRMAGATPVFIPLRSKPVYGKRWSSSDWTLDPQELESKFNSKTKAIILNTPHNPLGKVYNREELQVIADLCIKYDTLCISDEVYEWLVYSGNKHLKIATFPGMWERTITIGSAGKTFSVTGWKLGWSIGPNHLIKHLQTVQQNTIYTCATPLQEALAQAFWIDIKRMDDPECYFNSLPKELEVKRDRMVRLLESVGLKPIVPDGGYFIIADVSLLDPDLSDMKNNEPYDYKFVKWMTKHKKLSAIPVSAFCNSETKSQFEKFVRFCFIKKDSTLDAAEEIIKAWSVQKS

Target	thermal stability z-score (potassium arsenate)	thermal stability z-score (lipoamide; [1])	thermal stability z-score (lipoamide; arsenate co-treatment: none)
DCP2 (UniProt Q8IU60)	-0.203	-0.0416	0.195
BNIP2 (UniProt Q12982)	0.641	1.13	0.0699
AGO2 (UniProt Q9UKV8)	-0.204	0.826	0.402
ABHD17B (UniProt Q5VST6)	-0.595	-0.119	0.135
NCOA7 (UniProt Q8NI08)	0.0655	-0.676	-0.721
FNIP1 (UniProt Q8TF40)	0.000327	0.272	0.0643
PCNA (UniProt P12004)	1.56	0.353	-0.0687
CAV1 (UniProt Q03135)	1.02	0.49	0.74
IBTK (UniProt Q9P2D0)	-0.576	-0.734	-0.319
NR3C1 (UniProt P04150)	-0.462	-0.273	-0.664
TRIM33 (UniProt Q9UPN9)	-0.3	0.838	1.24
CARS2 (UniProt Q9HA77)	-1.39	-0.273	-0.517
ARPP19 (UniProt P56211)	-0.359	0.84	0.316
BAZ1B (UniProt Q9UIG0)	0.21	-0.152	-0.073
DDAH1 (UniProt O94760)	0.259	0.568	0.134
KATNA1 (UniProt O75449)	-0.539	-0.664	0.155
NF2 (UniProt P35240)	-0.309	0.402	0.235
KYAT3 (UniProt Q6YP21)	-0.182	-0.0731	0.185
FAM83D (UniProt Q9H4H8)	0.641	-0.472	-0.432
SFXN3 (UniProt Q9BWM7)	0.16	0.507	0.279
NME1|NME2	0.487	0.455	0.432
HSPA13 (UniProt P48723)	-0.112	-2.72	-2.35
NUP88 (UniProt Q99567)	0.549	-0.607	-0.513
SREBF1 (UniProt P36956)	0.119	-0.33	0.0707

Target	thermal stability z-score (potassium arsenate)	thermal stability z-score (lipoamide; [1])	thermal stability z-score (lipoamide; arsenate co-treatment: none)
TBC1D22A (UniProt Q8WUA7)	-1.19	-1.16	-0.15
METTL14 (UniProt Q9HCE5)	-0.164	0.355	-0.836
SLC43A3 (UniProt Q8NBI5)	0.807	0.34	0.53
CAPRIN1 (UniProt Q14444)	0.295	0.381	0.754
TRIT1 (UniProt Q9H3H1)	0.0151	-0.0696	-0.0898
RPL28 (UniProt P46779)	-0.548	0.57	0.375
EMC2 (UniProt Q15006)	0.472	-0.278	-0.164
GLG1 (UniProt Q92896)	-0.0446	-1.88	-1.9
NHLRC2 (UniProt Q8NBF2)	-2.19	-0.233	0.152
PARP2 (UniProt Q9UGN5)	-0.0979	0.0296	-0.0685
CASP2 (UniProt P42575)	-1	-0.172	0.304
IQGAP3 (UniProt Q86VI3)	-0.171	-0.157	-0.0447
TTN (UniProt Q8WZ42)	0.121	0.609	0.578
TACO1 (UniProt Q9BSH4)	-0.113	0.0383	-0.0229
RUVBL2 (UniProt Q9Y230)	-0.75	-0.408	-0.0917
RAB7A (UniProt P51149)	0.258	0.164	0.352
HN1 (UniProt Q9UK76)	0.518	1.68	1.13
RANBP3 (UniProt Q9H6Z4)	-0.0109	-0.326	0.21
UNC119 (UniProt Q13432)	-0.0734	0.0331	0.106
RAB3GAP2 (UniProt Q9H2M9)	0.64	-0.717	-0.266
MMAB (UniProt Q96EY8)	-0.58	-1.28	-1.35
CAMK1D (UniProt Q8IU85)	0.553	-0.513	-0.221
TOM1L2 (UniProt Q6ZVM7)	0.0525	-0.00565	-0.0362
CHMP4C (UniProt Q96CF2)	-0.789	-0.0236	-0.694

Target	thermal stability z-score (potassium arsenate)	thermal stability z-score (lipoamide; [1])	thermal stability z-score (lipoamide; arsenate co-treatment: none)
MRPS11 (UniProt P82912)	0.34	0.302	-0.354
NBAS (UniProt A2RRP1)	-0.0529	0.00568	0.0731
MTIF2 (UniProt P46199)	-0.789	-0.77	-1.59
ADSL (UniProt P30566)	-1.53	-0.0252	-0.429
MYO10 (UniProt Q9HD67)	0.432	0.223	0.44
STEAP4 (UniProt Q687X5)	0.565	0.438	0.75
CHEK1 (UniProt O14757)	-0.526	0.0611	-0.137
CCDC134 (UniProt Q9H6E4)	-0.0932	-2.13	-1.37
GNB2 (UniProt P62879)	-0.44	0.297	1.21
P3H2 (UniProt Q8IVL5)	1.11	-4.71	-4.05
CCNB2 (UniProt O95067)	0.36	0.346	-0.108
COPS7B (UniProt Q9H9Q2)	-0.241	-0.144	-0.241
MRPS35 (UniProt P82673)	-0.0913	-0.663	-0.362
NSUN2 (UniProt Q08J23)	-0.192	-1.4	-0.353
ATRX (UniProt P46100)	-0.0925	-0.0326	0.195
HIST1H1B (UniProt P16401)	1.19	1.01	0.679
LIMS1 (UniProt P48059)	-2.08	-0.604	-0.589
NUP188 (UniProt Q5SRE5)	0.426	-0.451	-0.512
DOCK1 (UniProt Q14185)	0.0692	-0.371	-1.05
POMGNT1 (UniProt Q8WZA1)	-0.0541	-0.429	0.0715
GOLGB1 (UniProt Q14789)	0.886	-0.345	-0.0596
XPA (UniProt P23025)	-0.0786	0.0325	0.0998
TRIM38 (UniProt O00635)	-0.447	-0.0725	-0.0917
